Data taken from ChEMBL document CHEMBL4609992, “Discovery of novel small molecule induced selective degradation of the bromodomain and extra-terminal (BET) bromodomain protein BRD4 and BRD2 with cellular potencies” (Bioorg Med Chem, 2020).
pIC50: −log10 of the molar value. Active and inactive are the calls of the source. The rule behind the calls is not given here.

What was measured:
[1] = target: T1, Bromodomain-containing protein 4 (Homo sapiens, UniProt O60885); test: Binding affinity to recombinant human N-terminal His-tagged BRD4 BD1 (44 to 170 residues) expressed in Escherichia coli using H4K5AcK8Ac as substrate measured after 30 mins by AlphaScreen assay
[2] = target: T1, Bromodomain-containing protein 4; test: Binding affinity to recombinant human N-terminal His-tagged BRD4 BD2 (349 to 460 residues) expressed in Escherichia coli measured after 30 mins by AlphaScreen assay
[3] = tested on: MOLM-13; test: Antiproliferative activity against human MOLM13 cells assessed as reduction in cell viability measured after 48 hrs by CellTiter-Glo assay; format: functional, cell-based; conditions: MOLM-13, 48 h
[4] = tested on: MV4-11; test: Antiproliferative activity against human MV4-11 cells assessed as reduction in cell viability measured after 48 hrs by CellTiter-Glo assay; format: functional, cell-based; conditions: MV4-11, 48 h
[5] = tested on: MV4-11; test: Induction of apoptosis in human MV4-11 cells at 10 uM measured after 24 hrs by Annexin V-FITC/propidium iodide staining based FACScan flow cytometry relative to control; format: functional
[6] = target: T1, Bromodomain-containing protein 4; test: Selectivity index, ratio of IC50 for BRD4 BD2 (unknown origin) to IC50 for BRD4 BD1 (unknown origin)
[7] = target: T2, Protein cereblon/Bromodomain-containing protein 4/Cullin-4A (Homo sapiens) (UniProt O60885+Q96SW2+Q13619); test: Protac activity at cereblon/cullin4A/BRD4 in human MV4-11 cells assessed as induction of BRD4 degradation at 500 nM measured after 18 hrs by Western blot analysis relative to control; format: cell-based
[8] = target: T2, Protein cereblon/Bromodomain-containing protein 4/Cullin-4A (Homo sapiens); test: Protac activity at cereblon/cullin4A/BRD4 in human MV4-11 cells assessed as downregulation of c-Myc at 50 nM measured after 18 hrs by Western blot analysis; format: cell-based
[9] = target: T2, Protein cereblon/Bromodomain-containing protein 4/Cullin-4A (Homo sapiens); test: Protac activity at cereblon/cullin4A/BRD4 in human MV4-11 cells assessed as induction of BRD4 degradation at 100 nM measured after >= 8 hrs by Western blot analysis; format: cell-based
[10] = target: T2, Protein cereblon/Bromodomain-containing protein 4/Cullin-4A (Homo sapiens); test: Protac activity at cereblon/cullin4A/BRD4 in human MV4-11 cells assessed as induction of BRD4 degradation at 100 nM measured after 1 to 4 hrs by Western blot analysis; format: cell-based

COC(=O)CCc1cc2c3c(ccc(NS(=O)(=O)c4ccccc4OC)c3c1)N(C)C2=O
pIC50 [1]: 6.44 | pIC50 [2]: 5.43

COc1ccccc1S(=O)(=O)Nc1ccc2c3c(cccc13)C(=O)N2C
pIC50 [3]: 5.47 | pIC50 [4]: 6.43 | Activity [5]: 86.07% | Ratio IC50 [6]: 50

COc1ccccc1S(=O)(=O)Nc1ccc2c3c(cc(CCC(=O)NCCNc4cccc5c4C(=O)N(C4CCC(=O)NC4=O)C5=O)cc13)C(=O)N2C (centres undefined)
pIC50 [3]: < 5.00 | pIC50 [4]: 5.78

COc1ccccc1S(=O)(=O)Nc1ccc2c3c(cc(CCC(=O)NCCCNc4cccc5c4C(=O)N(C4CCC(=O)NC4=O)C5=O)cc13)C(=O)N2C (centres undefined)
Activity [7]: 100% | Activity [8]: Active | pIC50 [3]: 6.75 | Activity [9]: Active | pIC50 [4]: 7.60 | Activity [10]: Active

Cc1sc2c(c1C)C(c1ccc(Cl)cc1)=N[C@@H](CC(=O)OC(C)(C)C)c1nnc(C)n1-2
pIC50 [4]: 7.09

COc1ccccc1S(=O)(=O)Nc1ccc2c3c(cc(CCC(=O)NCCCCCCNc4cccc5c4C(=O)N(C4CCC(=O)NC4=O)C5=O)cc13)C(=O)N2C (centres undefined)
pIC50 [3]: < 5.00 | pIC50 [4]: 5.46

COc1ccccc1S(=O)(=O)Nc1ccc2c3c(cc(CCC(=O)NCCCCCNc4cccc5c4C(=O)N(C4CCC(=O)NC4=O)C5=O)cc13)C(=O)N2C (centres undefined)
pIC50 [3]: 6.75 | pIC50 [4]: 7.49
